Measured values: patent publication US11999726B2, “5-methyl-4-fluoro-thiazol-2-yl compounds” (Eli Lilly and Company, priority 2018, dated 2024)

Target: T1, human O-GlcNAc-β-N-acetylglucosaminidase (OGA) (Homo sapiens, UniProt O60502)
T1 construct: poly-histidine (HIS) tag (N); made in house; host or cells: Sf9 insect cells (Bac-to-Bac baculovirus, pFastBac1)
T1 sequence (O60502 1-916): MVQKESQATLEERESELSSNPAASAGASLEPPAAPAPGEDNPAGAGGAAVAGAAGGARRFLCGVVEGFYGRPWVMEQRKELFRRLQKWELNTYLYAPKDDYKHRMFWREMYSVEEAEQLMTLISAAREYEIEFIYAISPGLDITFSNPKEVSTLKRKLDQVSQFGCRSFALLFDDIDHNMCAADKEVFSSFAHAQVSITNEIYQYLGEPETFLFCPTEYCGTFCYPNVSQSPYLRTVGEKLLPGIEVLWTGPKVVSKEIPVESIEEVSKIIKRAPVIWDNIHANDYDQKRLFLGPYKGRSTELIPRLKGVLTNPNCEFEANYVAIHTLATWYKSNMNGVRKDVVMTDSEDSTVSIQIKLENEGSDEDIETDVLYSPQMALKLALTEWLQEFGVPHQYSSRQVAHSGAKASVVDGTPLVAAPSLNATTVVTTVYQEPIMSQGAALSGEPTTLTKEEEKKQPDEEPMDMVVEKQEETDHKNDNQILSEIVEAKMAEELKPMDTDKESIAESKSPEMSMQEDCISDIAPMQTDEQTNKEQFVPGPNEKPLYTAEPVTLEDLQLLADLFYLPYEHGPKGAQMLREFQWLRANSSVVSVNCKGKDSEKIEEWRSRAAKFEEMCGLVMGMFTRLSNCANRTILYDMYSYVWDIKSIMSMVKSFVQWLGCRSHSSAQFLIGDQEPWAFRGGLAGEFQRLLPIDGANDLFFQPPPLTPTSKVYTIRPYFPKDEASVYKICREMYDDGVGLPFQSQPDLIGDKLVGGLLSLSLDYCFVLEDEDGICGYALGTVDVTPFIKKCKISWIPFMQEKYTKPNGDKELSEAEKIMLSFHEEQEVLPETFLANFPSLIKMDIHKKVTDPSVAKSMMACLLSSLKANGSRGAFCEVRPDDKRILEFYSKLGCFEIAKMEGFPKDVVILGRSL
Assay: In Vitro Human OGA Enzyme Assay
Type: biochemical
Conditions: FD-GlcNAc substrate 6.7 μM; 30 min pre-incubation with OGA enzyme; 60 min at room temperature; pH 7; n=3
Method: In Vitro Human OGA Enzyme Assay
The nucleotide sequence encoding full-length human O-GlcNAc-β-N-acetylglucosaminidase (NM_012215) is inserted into pFastBac1 (Invitrogen) vector with an N-terminal poly-histidine (HIS) tag. Baculovirus generation is carried out according to the Bac-to-Bac Baculovirus Expression system (Invitrogen) protocol. Sf9 cells are infected at 1.5×10^6 cells/mL using 10 mL of P1 virus per Liter of culture and incubated at 28° C. for 48 hrs. Cells are spun down, rinsed with PBS and the pellets stored at −80° C. […]
Resin is then packed onto column and washed with 50 mM Tris, pH 8.0, 300 mM NaCl, 10% glycerol, 10 mM imidazole, 0.1% Triton™ X-100, 1 mM DTT, followed by 50 mM Tris, pH 8.0, 150 mM NaCl, 10 mM imidazole, 10% glycerol, 1 mM DTT. […] Fractions containing His-OGA are pooled and protein concentration measured with BCA ([…]).
The OGA enzyme catalyses the removal of O-GlcNAc from nucleocytoplasmic proteins. […] This fluorogenic substrate becomes fluorescent upon cleavage by OGA, so that the enzyme activity can be measured by the increase in fluorescence detected at 535 nm (excitation at 485 nm).
The assay buffer is prepared to give a final concentration of 50 mM […], 0.01% bovine serum albumin and 0.01% Triton™ X-100 in water, at pH 7. […] Then, without stopping the reaction, fluorescence is read. […]

SMILES: CC(=O)Nc1nc(F)c(CN2CC[C@H](Oc3cnc(C#N)cn3)C[C@@H]2C)s1 [Example 1, N-[5-[[(2S,4S)-4-(5-cyanopyrazin-2-yl)oxy-2-methyl-1-piperidyl]methyl]-4-fluoro-thiazol-2-yl]acetamide]
- IC50: 0.343 nM
